Here are results for 5 molecules from ChEMBL document CHEMBL2095176, “GSK Tuberculosis Screening Data”.

The term logP denotes the decadic logarithm of the partition coefficient of the neutral form, usually between octanol and water. A lower logP goes with lower lipophilicity. The term kinetic solubility denotes the concentration staying in solution when a stock, usually in DMSO, is diluted into the medium. Broadly, the logD is lipophilicity at a set pH, counting ionised and neutral species.

For series [1] the following is noted: buffer, pH 7.4.
Description: (§1) GSK_TB: GSK in-house hydrophobicity assay at pH7.4 (logD)
A short description of series [2]: physchem. Particulars: octanol/water.
Description: (§2) GSK_TB: GSK in-house hydrophobicity assay (logP)
The nature of series [3]: physchem. To be noted: phosphate buffered saline, pH 7.4.
Series [4] has as its system Mycobacterium tuberculosis H37Rv. Kind of series: microbe, parasite or virus in culture.
Description: GSK_TB: Intracellular minimum inhibitory concentration (MIC) H37Rv assay
For series [5] the following is noted: octanol/water.
Description: as §2
Series [6] in a line: physchem. To be noted: buffer, pH 7.4.
Description: as §1

Values after ≈ are worked out from the molar mass of the structure shown.

In series [1], `CCN(CC)c1ccc(-c2nn3c(-c4n[nH]c5c4CCC5)nnc3s2)cc1` returned a logD7.4 of 5.44. This molecule came in with a lipophilicity (logP) in the series “physchem [2]” of 5.78. The molecule also had a kinetic solubility in “physchem [3]” of 1 µM (≈ 0.379 µg/mL). Besides, the MIC90 in series [4] came out at 1.5 µM (≈ 0.569 µg/mL).

The molecule `CC(C)(C)c1ccc(-c2nnc(SCC(=O)OC3CCCCC3)o2)cc1` registered a logD7.4 in series [1] of 9.17. The molecule also returned a logP in series [5] of 9.65. Besides, the kinetic solubility in the series “physchem [3]” was 1 µM (≈ 0.375 µg/mL). The molecule further had an MIC90 in series [4] of 1.74 µM (≈ 0.651 µg/mL).

The molecule `CCCCc1ccc(C(=O)Nc2nccc3ccccc23)nc1` registered a logD in the series “physchem [6]” of 6.65. The molecule also registered a logP in “physchem [2]” of 6.94. This molecule also displayed a kinetic solubility in the series “physchem [3]” of 98 µM (≈ 29.9 µg/mL). The molecule further had an MIC90 in series [4] of 9.23 µM (≈ 2.82 µg/mL).

`CCCc1ccc(S(=O)(=O)Nc2ccc(CN3CCN(CC4CC4)CC3)cc2)cc1.O=C(O)C(F)(F)F.O=C(O)C(F)(F)F` showed a logD in the series “physchem [6]” of 4.69. Moreover, the logP in the series “physchem [2]” was 5.54. Further, the solubility (kinetic) in “physchem [3]” is 318 µM. The molecule further came in with an MIC90 in series [4] of 7.76 µM.

For `CCc1ccc(S(=O)(=O)Nc2cc(CN3CCN(CCC(C)C)CC3)ccc2C)cc1.O=C(O)C(F)(F)F.O=C(O)C(F)(F)F`, the logD in “physchem [6]” was 6.28. Also, in the series “physchem [2]”, the lipophilicity (logP) turned out to be 7.74. The molecule also yielded a kinetic solubility in “physchem [3]” of 313 µM. Moreover, the MIC90 in series [4] stood at 4.68 µM.
